{
  "source": "patent US20020016370A1",
  "about": "(priority 1998, published 2002)",
  "key": {"[1]": {"system": "mice", "settings": "cited from earlier work"}, "[2]": {"system": "TS patients", "settings": "Tourette's syndrome; cited from earlier work"}, "[3]": {"biological_target": "T1, human α7 receptors (Homo sapiens, UniProt P36544)", "T1 construct": "expressed in transfected cells; host or cells: Xenopus laevis oocytes injected with cRNA", "T1 sequence (P36544 23-502)": "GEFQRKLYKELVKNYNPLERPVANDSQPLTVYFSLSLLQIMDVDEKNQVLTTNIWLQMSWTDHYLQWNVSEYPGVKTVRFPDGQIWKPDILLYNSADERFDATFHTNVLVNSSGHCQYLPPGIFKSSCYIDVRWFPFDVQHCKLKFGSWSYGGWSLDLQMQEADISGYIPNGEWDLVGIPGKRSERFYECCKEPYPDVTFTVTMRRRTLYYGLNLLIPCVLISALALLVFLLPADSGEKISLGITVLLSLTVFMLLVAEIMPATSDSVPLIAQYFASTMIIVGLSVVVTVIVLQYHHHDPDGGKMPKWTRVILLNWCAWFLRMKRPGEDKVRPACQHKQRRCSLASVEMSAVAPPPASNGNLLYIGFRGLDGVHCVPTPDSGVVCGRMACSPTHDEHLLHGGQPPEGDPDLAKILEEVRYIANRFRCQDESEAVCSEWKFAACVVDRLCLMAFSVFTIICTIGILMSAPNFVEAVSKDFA", "test": "Two-electrode voltage clamp, receptors expressed in Xenopus oocytes", "format": "cell-based"}, "[4]": {"system": "male Swiss-Webster mice", "test": "Locomotor depression test", "format": "in vivo, mouse"}, "[5]": {"biological_target": "T2, α1β1δε mouse muscle receptors (Mus musculus, UniProt P02716+P04756+P09690+P20782)", "T2 sequence (P04756 21-457)": "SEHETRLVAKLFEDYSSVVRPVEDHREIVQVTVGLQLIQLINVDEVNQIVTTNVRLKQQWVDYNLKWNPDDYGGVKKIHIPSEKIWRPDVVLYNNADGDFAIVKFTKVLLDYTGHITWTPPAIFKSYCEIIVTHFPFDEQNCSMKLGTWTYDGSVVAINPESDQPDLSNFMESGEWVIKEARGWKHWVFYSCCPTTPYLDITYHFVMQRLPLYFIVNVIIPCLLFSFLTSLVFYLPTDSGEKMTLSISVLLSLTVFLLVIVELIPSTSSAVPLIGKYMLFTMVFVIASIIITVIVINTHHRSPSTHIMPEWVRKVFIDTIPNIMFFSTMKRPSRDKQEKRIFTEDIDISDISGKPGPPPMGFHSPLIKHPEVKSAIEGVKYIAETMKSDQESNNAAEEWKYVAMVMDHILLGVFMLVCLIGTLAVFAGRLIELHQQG", "T2 sequence (P09690 24-501)": "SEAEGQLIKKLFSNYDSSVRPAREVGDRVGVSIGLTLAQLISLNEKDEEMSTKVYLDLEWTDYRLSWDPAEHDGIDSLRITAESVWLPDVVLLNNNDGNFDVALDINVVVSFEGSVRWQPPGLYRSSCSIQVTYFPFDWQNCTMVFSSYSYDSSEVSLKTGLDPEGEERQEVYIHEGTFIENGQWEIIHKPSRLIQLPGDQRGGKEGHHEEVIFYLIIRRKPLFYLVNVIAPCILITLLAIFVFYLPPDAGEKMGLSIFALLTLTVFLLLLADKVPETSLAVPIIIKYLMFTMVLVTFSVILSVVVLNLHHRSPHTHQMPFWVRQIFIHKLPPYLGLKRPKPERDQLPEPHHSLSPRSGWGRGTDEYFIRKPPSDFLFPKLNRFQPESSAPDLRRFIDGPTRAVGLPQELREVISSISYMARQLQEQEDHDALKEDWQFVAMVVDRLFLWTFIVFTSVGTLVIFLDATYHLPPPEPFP", "T2 sequence (P02716 25-520)": "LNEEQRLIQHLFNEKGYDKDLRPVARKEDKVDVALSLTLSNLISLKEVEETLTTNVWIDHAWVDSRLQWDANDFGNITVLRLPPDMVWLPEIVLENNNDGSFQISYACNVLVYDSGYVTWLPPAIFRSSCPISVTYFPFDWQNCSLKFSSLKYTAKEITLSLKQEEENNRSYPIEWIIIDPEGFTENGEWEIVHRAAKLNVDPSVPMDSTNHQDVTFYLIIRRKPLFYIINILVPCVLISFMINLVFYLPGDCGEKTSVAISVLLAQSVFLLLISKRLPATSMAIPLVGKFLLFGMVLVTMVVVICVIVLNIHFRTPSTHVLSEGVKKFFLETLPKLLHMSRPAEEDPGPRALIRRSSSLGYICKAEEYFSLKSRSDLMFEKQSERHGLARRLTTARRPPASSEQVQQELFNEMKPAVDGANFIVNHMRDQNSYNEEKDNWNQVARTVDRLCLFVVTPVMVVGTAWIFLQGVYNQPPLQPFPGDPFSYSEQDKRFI", "T2 sequence (P20782 21-493)": "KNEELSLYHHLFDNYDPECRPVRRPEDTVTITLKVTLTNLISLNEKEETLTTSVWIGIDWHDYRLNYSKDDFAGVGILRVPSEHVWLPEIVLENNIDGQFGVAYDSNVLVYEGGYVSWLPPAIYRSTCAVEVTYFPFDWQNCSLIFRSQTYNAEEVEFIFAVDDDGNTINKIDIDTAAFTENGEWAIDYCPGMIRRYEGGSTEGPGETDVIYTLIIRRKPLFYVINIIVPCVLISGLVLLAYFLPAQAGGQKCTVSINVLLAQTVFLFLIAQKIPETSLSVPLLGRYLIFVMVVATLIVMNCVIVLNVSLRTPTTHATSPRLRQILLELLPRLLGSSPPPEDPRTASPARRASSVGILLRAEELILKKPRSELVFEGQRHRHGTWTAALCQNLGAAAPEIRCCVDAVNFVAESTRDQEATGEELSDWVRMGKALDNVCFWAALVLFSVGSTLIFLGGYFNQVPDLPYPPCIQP", "test": "Selectivity test on muscle receptors in oocytes", "format": "cell-based"}, "[6]": {"system": "Sprague-Dawley derived rats", "test": "Prevention of sensitized locomotor stimulant response to nicotine", "format": "in vivo, rat", "settings": "pretreatment 7 days before nicotine; test on day 9"}, "[7]": {"system": "vagotomized, pithed and artificially respired rats", "test": "Pithed rat: plasma catecholamine responses to sympathetic nerve stimulation", "format": "in vivo", "settings": "for change of plasma DA levels on sympathetic stimulation: from baseline"}, "[8]": {"system": "male Swiss-Webster mice", "test": "Cocaine interaction study (locomotor activity)", "format": "in vivo, mouse", "settings": "10 mg/kg ip plus cocaine 20 mg/kg, at 30 minutes"}, "[9]": {"biological_target": "T3, human α3β2 receptors (Homo sapiens, UniProt P17787+P32297)", "T3 construct": "expressed in transfected cells; host or cells: Xenopus laevis oocytes injected with cRNA", "test": "Two-electrode voltage clamp, receptors expressed in Xenopus oocytes", "format": "cell-based", "settings": "β2-containing receptors"}, "[10]": {"biological_target": "hDAT (dopamine transporter) (Homo sapiens, UniProt Q01959)", "test": "[125]RTI-55 binding, HEK293 cell membranes", "settings": "HEK-hDAT membranes"}, "[11]": {"biological_target": "T4, human α3β4 receptors (Homo sapiens, UniProt P30926+P32297)", "T4 construct": "expressed in transfected cells; host or cells: Xenopus laevis oocytes injected with cRNA", "T4 sequence (P32297 32-505)": "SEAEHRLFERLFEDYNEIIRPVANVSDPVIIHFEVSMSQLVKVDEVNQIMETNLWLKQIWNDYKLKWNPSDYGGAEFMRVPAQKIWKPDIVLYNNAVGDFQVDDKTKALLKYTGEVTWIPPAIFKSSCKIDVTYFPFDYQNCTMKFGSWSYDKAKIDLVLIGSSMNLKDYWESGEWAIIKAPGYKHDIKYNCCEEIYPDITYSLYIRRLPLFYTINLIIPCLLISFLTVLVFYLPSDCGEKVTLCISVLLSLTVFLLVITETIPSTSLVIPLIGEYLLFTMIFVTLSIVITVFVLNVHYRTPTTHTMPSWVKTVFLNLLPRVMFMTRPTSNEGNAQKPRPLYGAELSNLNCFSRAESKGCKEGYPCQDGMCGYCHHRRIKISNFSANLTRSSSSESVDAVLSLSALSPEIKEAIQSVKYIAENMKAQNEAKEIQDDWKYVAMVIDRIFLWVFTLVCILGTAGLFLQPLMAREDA", "T4 sequence (P30926 22-498)": "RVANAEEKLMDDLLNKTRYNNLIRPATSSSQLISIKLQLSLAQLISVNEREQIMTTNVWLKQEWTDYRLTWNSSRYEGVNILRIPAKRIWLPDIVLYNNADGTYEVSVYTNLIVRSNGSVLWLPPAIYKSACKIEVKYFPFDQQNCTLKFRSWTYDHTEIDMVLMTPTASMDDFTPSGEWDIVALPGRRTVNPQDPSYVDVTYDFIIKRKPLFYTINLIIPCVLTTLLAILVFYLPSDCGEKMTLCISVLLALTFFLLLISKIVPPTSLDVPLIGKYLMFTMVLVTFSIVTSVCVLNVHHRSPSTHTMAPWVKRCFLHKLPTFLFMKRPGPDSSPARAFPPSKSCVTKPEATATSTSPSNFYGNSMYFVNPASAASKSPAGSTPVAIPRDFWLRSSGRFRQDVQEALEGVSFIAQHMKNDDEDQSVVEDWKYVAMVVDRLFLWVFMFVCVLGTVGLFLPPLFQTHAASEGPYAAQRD", "test": "Two-electrode voltage clamp, receptors expressed in Xenopus oocytes", "format": "cell-based"}, "[12]": {"system": "vagotomized, pithed and artificially respired rats", "test": "Pithed rat: cardiovascular responses to sympathetic nerve stimulation", "format": "in vivo", "settings": "for increases in heart rate (δ HR): 2.2 Hz, highest dose, versus saline; for stimulation-induced increases in MAP: stimulation at 0.8 and 2.2 Hz, i.v. bolus"}, "[13]": {"system": "Male Sprague-Dawley rats", "test": "Mecamylamine blockade of nicotine-induced seizures", "format": "in vivo, rat"}, "[14]": {"biological_target": "hSERT (serotonin transporter) (Homo sapiens, UniProt P31645)", "test": "[125]RTI-55 binding, HEK293 cell membranes", "settings": "HEK-hSERT membranes"}, "[15]": {"biological_target": "hNET (norepinephrine transporter) (Homo sapiens, UniProt P23975)", "test": "[125]RTI-55 binding, HEK293 cell membranes", "settings": "HEK-hNET membranes"}, "[16]": {"biological_target": "T5, human α4β2 receptors (Homo sapiens, UniProt P17787+P43681)", "T5 construct": "expressed in transfected cells; host or cells: Xenopus laevis oocytes injected with cRNA", "test": "Two-electrode voltage clamp, receptors expressed in Xenopus oocytes", "format": "cell-based"}, "[17]": {"biological_target": "T6, NMDA receptor subunits NR1 and NR2b (Homo sapiens, UniProt Q05586+Q13224)", "T6 construct": "expressed in transfected cells; host or cells: Xenopus oocytes", "T6 sequence (Q13224 27-1484, other chains not shown)": "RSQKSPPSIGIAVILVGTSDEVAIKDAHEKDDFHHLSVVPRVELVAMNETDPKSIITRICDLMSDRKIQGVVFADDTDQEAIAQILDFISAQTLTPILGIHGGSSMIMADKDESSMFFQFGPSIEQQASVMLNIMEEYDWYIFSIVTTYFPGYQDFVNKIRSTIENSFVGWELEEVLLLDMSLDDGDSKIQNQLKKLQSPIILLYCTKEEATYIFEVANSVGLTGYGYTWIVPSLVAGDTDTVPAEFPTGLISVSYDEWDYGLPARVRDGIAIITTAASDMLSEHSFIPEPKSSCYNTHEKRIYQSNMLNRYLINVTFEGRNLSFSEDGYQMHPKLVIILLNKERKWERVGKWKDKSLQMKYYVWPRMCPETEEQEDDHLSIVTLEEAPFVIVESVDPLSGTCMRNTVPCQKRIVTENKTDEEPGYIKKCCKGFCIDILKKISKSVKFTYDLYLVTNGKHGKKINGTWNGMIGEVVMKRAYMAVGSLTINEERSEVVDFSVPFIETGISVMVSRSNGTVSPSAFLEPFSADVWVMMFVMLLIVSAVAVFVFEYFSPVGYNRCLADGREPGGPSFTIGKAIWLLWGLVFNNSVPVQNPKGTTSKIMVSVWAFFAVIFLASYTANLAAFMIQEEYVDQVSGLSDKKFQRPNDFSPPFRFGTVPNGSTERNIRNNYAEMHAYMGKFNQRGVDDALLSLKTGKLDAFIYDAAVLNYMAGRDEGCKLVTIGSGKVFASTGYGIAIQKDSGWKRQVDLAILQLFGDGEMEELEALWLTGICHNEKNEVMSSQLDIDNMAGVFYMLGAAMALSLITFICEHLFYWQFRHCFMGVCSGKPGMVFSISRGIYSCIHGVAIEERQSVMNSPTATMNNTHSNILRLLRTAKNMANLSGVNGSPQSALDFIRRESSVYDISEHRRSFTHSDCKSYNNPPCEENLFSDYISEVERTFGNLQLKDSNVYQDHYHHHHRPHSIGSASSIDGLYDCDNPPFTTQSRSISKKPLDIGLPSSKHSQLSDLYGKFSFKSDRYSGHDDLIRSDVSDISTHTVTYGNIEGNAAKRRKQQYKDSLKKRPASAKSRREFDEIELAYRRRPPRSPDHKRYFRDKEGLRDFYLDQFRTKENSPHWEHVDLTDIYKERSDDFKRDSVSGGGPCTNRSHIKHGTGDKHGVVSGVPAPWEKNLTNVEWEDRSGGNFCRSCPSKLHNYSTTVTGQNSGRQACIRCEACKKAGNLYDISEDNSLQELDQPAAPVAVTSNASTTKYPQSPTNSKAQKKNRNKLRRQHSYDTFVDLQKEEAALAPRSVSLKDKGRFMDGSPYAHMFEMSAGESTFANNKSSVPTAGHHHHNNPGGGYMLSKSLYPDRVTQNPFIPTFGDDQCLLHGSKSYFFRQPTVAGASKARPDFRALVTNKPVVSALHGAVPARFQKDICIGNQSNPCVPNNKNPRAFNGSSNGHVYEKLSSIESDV", "test": "Oocytes coexpressing NMDA receptor subunits", "format": "cell-based", "settings": "100 μM", "text": "NR1 is ubiquitous in the brain and produces robust functional responses when coexpressed with the NR2b subunit and activated by glutamate and the coagonist glycine. NR2b in vivo is selectively present in the forebrain with high levels of expression in the cerebral cortex and hippocampus, as well as the septum, caudate putamen and olfactory bulb, making the combination of NR2b and NR1 relevant for both cognitive and motor functions in the CNS."}, "[18]": {"system": "Male Sprague-Dawley rats", "test": "Effects of mecamylamine alone at high dose (seizures, spontaneous locomotor activity)", "format": "in vivo, rat", "settings": "10 mg/kg s.c."}, "[19]": {"system": "nicotine receptors", "test": "Oocyte recovery time course and agonist tests, receptor subtype not specified", "format": "cell-based"}, "[20]": {"biological_target": "T2, α1β1δε mouse muscle receptors", "settings": "stated as a finding in the discussion; cited from earlier work"}, "[21]": {"system": "rats", "settings": "mecamylamine 0.1-1 mg/day, ip; cited from earlier work"}},
  "note": "Where two headings read alike, the source gives them in different places.",
  "data": [
    {"compound": "CN1[C@@H]2CC[C@H]1C[C@@H](OC(=O)C(CO)c1ccccc1)C2", "note": "(some centres unmarked) [atropine]", "values": [
      {"measurement": "effect against psychostimulant-induced stereotypy in naive animals", "setting": "[1]; mouse, in vivo", "value": "ineffective"}
    ]},
    {"compound": "Clc1cccc(Cl)c1N=C1NCCN1", "note": "[clonidine]", "values": [
      {"measurement": "success rate for motor and vocal tics", "setting": "[2]", "value": 40, "unit": "%"}
    ]},
    {"compound": "CO[C@H]1CC=C2CCN3CCC4=C(CC(=O)OC4)[C@]23C1", "note": "[dihydro-beta-erythroidine]", "values": [
      {"measurement": "effect against psychostimulant-induced stereotypy in naive animals", "setting": "[1]; systemic administration", "value": "ineffective"}
    ]},
    {"compound": "CN[C@]1(C)[C@H]2CC[C@H](C2)C1(C)C", "note": "[exo-R-mecamylamine]", "values": [
      {"measurement": "potency of inhibition, comparing the IC50 values across receptors", "setting": "[3]", "value": "least potent"},
      {"measurement": "residual inhibition, compared across receptors", "setting": "[3]", "value": "least"},
      {"measurement": "stimulant effects", "setting": "[4]; 10 mg/kg ip, last 30 minutes of testing", "value": "evident"},
      {"measurement": "dose producing one half of the maximal depressant activity", "setting": "[4]; ip, 20 min before testing, maximal depression is 0 counts in 30 minutes", "value": 9.3, "unit": "mg/kg"},
      {"measurement": "effect on muscle receptors", "setting": "[5]", "value": "very little effect"},
      {"measurement": "inhibition of muscle receptors after a 5-min wash", "setting": "[5]", "value": "fully reversed"},
      {"measurement": "effectiveness compared between isomers, particularly center distance and vertical activity", "setting": "[6]", "value": "generally more effective at lower doses"},
      {"measurement": "stimulation-induced increases in plasma NE levels versus saline", "setting": "[7]; 2.2 Hz", "value": "significantly less"},
      {"measurement": "change of plasma DA levels on sympathetic stimulation", "setting": "[7]; 2.2 Hz", "value": "significant increases in plasma DA levels"},
      {"measurement": "locomotion versus cocaine alone", "setting": "[8]", "value": "significantly lower"},
      {"measurement": "residual inhibition, compared across receptors", "setting": "[9]", "value": "greatest"},
      {"measurement": "affinity compared to cocaine", "setting": "[10]", "value": "lower than the affinity of cocaine"},
      {"measurement": "subsequent control response to ACh 5 min after exposure (residual inhibition)", "setting": "[11]", "value": "marked decrease"},
      {"measurement": "fast phase of recovery, average duration", "setting": "[11]; no further recovery afterwards", "value": 12, "unit": "min"},
      {"measurement": "increases in heart rate (δ HR)", "setting": "[12]", "value": "significantly lowered the increases in heart rate"},
      {"measurement": "stimulation-induced increases in MAP", "setting": "[12]", "value": "completely abolished"},
      {"measurement": "duration and severity of seizure versus saline (FIG. 6C)", "setting": "[13]; 0.1 mg/kg s.c.", "value": "did not differ from their saline comparison group"},
      {"measurement": "affinity compared to cocaine", "setting": "[14]", "value": "lower than the affinity of cocaine"},
      {"measurement": "affinity compared to cocaine", "setting": "[15]", "value": "lower than the affinity of cocaine"},
      {"measurement": "voltage dependence of inhibition / off rate", "setting": "[16]; 5 μM, −40 mV or 90 mV", "value": "significant voltage effects"},
      {"measurement": "residual inhibition, compared across receptors", "setting": "[16]; β2-containing receptors", "value": "greatest"}
    ]},
    {"compound": "CN[C@@]1(C)[C@@H]2CC[C@@H](C2)C1(C)C", "note": "[exo-S-mecamylamine]", "values": [
      {"measurement": "inhibition of response to 10 μM glutamate+10 μM glycine", "setting": "[17]", "value": "transient inhibition"},
      {"measurement": "reversibility after a 5-min wash", "setting": "[17]", "value": "reversible"},
      {"measurement": "stimulation-induced increases in plasma NE levels versus saline", "setting": "[7]; 2.2 Hz", "value": "significantly decreased stimulation-evoked plasma NE increases"},
      {"measurement": "stimulation-induced plasma EPI responses", "setting": "[7]; 2.2 Hz", "value": "significant decrease"},
      {"measurement": "change of plasma DA levels on sympathetic stimulation", "setting": "[7]; 2.2 Hz", "value": "not"},
      {"measurement": "overall effectiveness on plasma CA and sympathetically-mediated cardiovascular responses", "setting": "[7]; among the three forms", "value": "the most effective in reducing plasma CA"},
      {"measurement": "locomotor depressant effects compared to exo-R-mecamylamine", "setting": "[18]", "value": "significantly less locomotor depressant effects"},
      {"measurement": "increases in heart rate (δ HR)", "setting": "[12]", "value": "significantly lowered the increases in heart rate"},
      {"measurement": "stimulation-induced increases in MAP", "setting": "[12]", "value": "completely abolished"},
      {"measurement": "initial inhibition", "setting": "[19]; co-application of 10 μM and ACh at the control concentration", "value": "greater than 50%"},
      {"measurement": "off-loading from some receptors compared to exo-R-mecamylamine", "setting": "[19]; recovery time course", "value": "more slowly"},
      {"measurement": "inhibitory effect at nAChR muscle receptors compared to exo-R-mecamylamine", "setting": "[20]", "value": "less inhibitory effect"},
      {"measurement": "duration and severity of seizure versus saline (FIG. 6C)", "setting": "[13]; 0.1 mg/kg s.c.", "value": "significantly different from their saline comparison groups"},
      {"measurement": "seizure latency versus saline comparison groups", "setting": "[13]; 0.1 mg/kg s.c.", "value": "significantly longer seizure latency"},
      {"measurement": "number of rats with nicotine-seizures compared to exo-R-mecamylamine", "setting": "[13]; lowest dose 0.1 mg/kg", "value": "fewer rats had nicotine-seizures"}
    ]},
    {"compound": "O=C(CCCN1CCC(O)(c2ccc(Cl)cc2)CC1)c1ccc(F)cc1", "note": "[haloperidol]", "values": [
      {"measurement": "cases in which effective", "setting": "[2]", "value": "about 70%"}
    ]},
    {"compound": "C[N+](C)(C)CCCCCC[N+](C)(C)C", "note": "[hexamethonium]", "values": [
      {"measurement": "block of nicotine-induced locomotor hyperactivity and tail tremor", "setting": "[21]", "value": "not"}
    ]}
  ]
}
